According to article PMC12064818, “A general assay platform to study protein pharmacology using ligand-dependent structural dynamics” (Nature Communications, 2025):
Several values for one entry are separate records, joined by “and”; a condition that tells them apart may be missing. Equal values may be shown once. Read-outs that look alike come from different tables or passages of the source.

Key:
[1] = molecular target: E. coli Lig-N-HiBiT (DNA ligase) (Escherichia coli, UniProt P15042); conditions: for SDR assay data: 0.5 nM E. coli Lig-N-HiBiT; for SDR assay data / SDR response: Log [ATP]; for SDR response: replicates
E. coli Lig-N-HiBiT (DNA ligase), sequence (P15042 2-671): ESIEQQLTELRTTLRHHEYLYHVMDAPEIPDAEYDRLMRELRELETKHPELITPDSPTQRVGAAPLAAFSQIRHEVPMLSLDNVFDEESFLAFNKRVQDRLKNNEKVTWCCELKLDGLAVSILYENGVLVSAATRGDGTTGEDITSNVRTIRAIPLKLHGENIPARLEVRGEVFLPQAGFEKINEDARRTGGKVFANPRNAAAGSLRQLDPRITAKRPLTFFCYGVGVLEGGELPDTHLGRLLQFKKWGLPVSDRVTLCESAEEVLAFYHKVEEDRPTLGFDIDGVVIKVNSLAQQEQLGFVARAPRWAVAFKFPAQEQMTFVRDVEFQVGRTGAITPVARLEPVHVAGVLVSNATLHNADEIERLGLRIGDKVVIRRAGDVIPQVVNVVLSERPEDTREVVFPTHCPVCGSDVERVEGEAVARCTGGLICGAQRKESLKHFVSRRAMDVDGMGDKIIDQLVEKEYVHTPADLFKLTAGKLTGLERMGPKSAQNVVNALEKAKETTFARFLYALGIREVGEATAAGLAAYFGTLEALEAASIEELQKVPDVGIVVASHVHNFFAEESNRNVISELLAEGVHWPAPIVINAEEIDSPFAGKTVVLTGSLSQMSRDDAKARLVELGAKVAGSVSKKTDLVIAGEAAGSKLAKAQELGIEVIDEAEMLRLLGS

[2] = molecular target: T1, ABL1-N-HiBiT kinase domain (Homo sapiens, UniProt P00519); assay: SDR assay, ABL1-N-HiBiT
T1 sequence (P00519 233-500): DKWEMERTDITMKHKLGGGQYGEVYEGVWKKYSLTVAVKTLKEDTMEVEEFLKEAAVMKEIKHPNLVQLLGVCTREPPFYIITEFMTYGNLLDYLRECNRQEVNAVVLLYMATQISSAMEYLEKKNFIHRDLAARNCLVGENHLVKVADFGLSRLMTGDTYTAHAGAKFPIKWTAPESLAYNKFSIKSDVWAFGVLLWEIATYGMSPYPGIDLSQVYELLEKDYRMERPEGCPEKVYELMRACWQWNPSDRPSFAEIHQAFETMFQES

C. elegans iPGM-C-HiBiT = C. elegans iPGM-C-HiBiT (Caenorhabditis elegans, UniProt G5EFZ1); assay: C. elegans iPGM fluorescent polarization competition-binding assay (Ce-2d-FL probe); parameters: cDNA, containing Phe2-Ile539 and the 6xHis tag; His6 (C); made in house; host or cells: E. coli
C. elegans iPGM-C-HiBiT, sequence (G5EFZ1 2-539): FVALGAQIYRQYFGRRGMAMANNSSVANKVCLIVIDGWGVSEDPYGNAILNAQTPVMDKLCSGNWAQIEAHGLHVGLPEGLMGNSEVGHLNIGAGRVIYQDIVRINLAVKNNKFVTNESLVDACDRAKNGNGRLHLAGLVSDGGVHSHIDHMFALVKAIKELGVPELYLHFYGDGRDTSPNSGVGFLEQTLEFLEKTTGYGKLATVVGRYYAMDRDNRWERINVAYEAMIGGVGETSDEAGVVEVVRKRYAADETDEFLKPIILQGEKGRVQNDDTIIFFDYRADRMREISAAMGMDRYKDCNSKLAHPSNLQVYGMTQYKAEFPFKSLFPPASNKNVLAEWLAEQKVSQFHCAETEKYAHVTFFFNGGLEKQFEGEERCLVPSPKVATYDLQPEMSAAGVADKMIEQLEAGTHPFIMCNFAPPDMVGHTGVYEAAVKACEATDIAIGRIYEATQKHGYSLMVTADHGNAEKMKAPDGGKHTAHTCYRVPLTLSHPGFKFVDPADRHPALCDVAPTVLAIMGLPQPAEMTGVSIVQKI
Description: All reagents were prepared on ice, protected from light. […] Compounds and controls were added with a pintool to each plate as described in Supplementary Data 8. Assay plates were incubated for 20 min at ambient temperature. […] Microtiter plates were allowed to reach equilibrium (30 min incubation at ambient temperature) while protected from light. Fluorescence polarization was measured with the same reader settings as above. Data were row-wise normalized to no enzyme control as -100% activity and enzyme + DMSO vehicle control as neutral control. See Supplementary Table 7 for additional details.
Supplementary Table 7. Protocol for Co- factor independent phosphoglycerate mutase (iPGM) fluorescent polarization competition-biding assay
Supplementary Table 7: Protocol for C. elegans co-factor independent phosphoglycerate m utase (iPGM) fluorescent polarization com petition-binding assay
Sequence Param eter Value Description
No enzym e control (colum n 1) and enzym e solution (10 nM Ce iPGM-C-HiBiT dialyzed 1 Reagent 4 µLagainst Zn/Mn final assay concentration) in assay buffer + 0.05% IGEPAL; black/solid bottom , m edium bind, high base plates (Greiner), dispensed with BioRaptr 2 […]
Test com pounds: m acrocyclic peptides at 5 m M stock concentration in 16- pt, 1:3 titration […]
com pounds transferred to respective colum ns with Pintool
3 Incubation 20 m in Incubate enzym e + com pounds at am bient tem p for 20 m in, protected from light 4 Pre-Read Spark Measure fluorescence polarization of fluorescein (X480, M535) on Spark m ultimode m icroplate reader […]
dispensed with BioRaptr 2
6 Incubation 30 m in Am bient tem perature, protected from light
7 Detector Spark Measure fluorescence polarization of fluorescein (X480, M535) on Spark m ultimode m icroplate reader
Assay buffer: 30 m M Tris-HCl, pH 8.0; 5 m M MgSO4; 20 m M KCl; 0.05% IGEPAL. All solutions filtered through 0.22 1 µm syringe filter prior to dispense.
Measure fluorescence polarization of fluorescein on Spark m ultimode m icroplate reader with FP protocol: Excitation […]
4/7 20.0; G-Factor “Manual” = 1.000; Blank “Not Defined”.
Advanced Settings: Flashes = 30; Gain “Optim al”; Mirror “Autom atic”; Z-position [um ] “Manual” = 20000; Settle Tim e […]
Fluorescence polarization ligand solution: 30 m M Tris-HCl, pH 8.0; 5 m M MgSO4; 20 m M KCl; 0.05% IGEPAL; 15 […]
Solution filtered through 0.22
µm syringe filter prior to dispense.

FLuc-C-HiBiT = molecular target: T2, FLuc-C-HiBiT (Photinus pyralis, UniProt P08659); assay: biochemical; conditions: enzyme activity, 10 uM ATP; read-out: IC50 or SDR50 (mM) / FLuc E
T2 construct: firefly luciferase with C-terminal HiBiT tag, E. coli expressed
T2 sequence (P08659 whole entry, looked up): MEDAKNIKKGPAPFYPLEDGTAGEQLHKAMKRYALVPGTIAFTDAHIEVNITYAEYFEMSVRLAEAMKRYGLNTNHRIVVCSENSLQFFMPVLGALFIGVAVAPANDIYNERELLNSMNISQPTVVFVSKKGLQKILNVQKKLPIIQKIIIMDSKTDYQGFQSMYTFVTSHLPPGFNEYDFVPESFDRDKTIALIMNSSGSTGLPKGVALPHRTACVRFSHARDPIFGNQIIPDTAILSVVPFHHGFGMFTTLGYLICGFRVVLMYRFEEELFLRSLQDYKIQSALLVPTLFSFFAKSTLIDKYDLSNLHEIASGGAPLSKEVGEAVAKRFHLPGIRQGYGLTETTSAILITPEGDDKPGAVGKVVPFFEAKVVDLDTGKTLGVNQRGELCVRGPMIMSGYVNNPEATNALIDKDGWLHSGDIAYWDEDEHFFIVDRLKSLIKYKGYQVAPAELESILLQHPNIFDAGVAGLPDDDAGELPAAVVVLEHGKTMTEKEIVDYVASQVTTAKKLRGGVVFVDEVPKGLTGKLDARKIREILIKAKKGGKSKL

[3] = E. coli Lig-N-HiBiT (0.5 nM), ligand 100 µM
[4] = C. elegans iPGM-C-HiBiT FP 10 nM, ligand […] FP

## Nc1ncnc2c1ncn2[C@@H]1O[C@H](COP(=O)(O)OP(=O)(O)OP(=O)(O)O)[C@@H](O)[C@H]1O [ATP]
[1]; M -2.85
  SDR assay data: 49.3 and 51.1 and 44.4
  SDR response: 49.3 and 51.1 and 44.4
[1]; M -3.15
  SDR assay data: 28.9 and 34.6 and 36.9
  SDR response: 28.9 and 34.6 and 36.9
[1]; M -3.45
  SDR assay data: 8.9 and 17.7 and 9.6
  SDR response: 8.9 and 17.7 and 9.6
[1]; E. coli Lig-N-HiBiT
  SDR assay response (in words): weak though reproducible SDR output
[1]; [3]
  SDR assay statistics Ave RLU: 315.5 RLU
  SDR assay statistics S:B: 1.1
  SDR assay statistics S:N: 0.6
  SDR assay statistics Z’: -6.013
[1]; E. coli Lig-N-HiBiT, maximum response
  max resp: 48.3
[1]; M -3.75
  SDR response: 3.6 and 9.8 and 15.1
[1]; M -4.05
  SDR response: 1.5 and 7.7 and 15.7
[1]; M -4.35
  SDR response: 0.051 and 11.3 and 4.7
[1]; M -4.65
  SDR response: 0.8 and 3.9 and 8.7
[1]; M -4.95
  SDR response: -0.949 and 1.5 and 6.8
[1]; M -5.25
  SDR response: -4.0 and 5.1 and 9.7
[1]; M -5.55
  SDR response: -8.9 and 4.7 and 2.7
[1]; M -5.86
  SDR response: -3.0 and -2.8 and 4.9
[1]; M -6.16
  SDR response: -9.9 and -0.326
[1]; M -6.46
  SDR response: -6.9 and 3.7
[1]; M -6.76
  SDR response: -8.7 and 1.0 and 4.2
[2]
  EC50: 24.5 µM

## CC(C)C[C@H](NC(=O)[C@H](Cc1ccc(O)cc1)NC(=O)[C@@H]1CSCC(=O)N[C@H](Cc2ccc(O)cc2)C(=O)N[C@@H](CC(=O)O)C(=O)N[C@@H](Cc2ccc(O)cc2)C(=O)N2CCC[C@H]2C(=O)NCC(=O)N[C@@H](CC(=O)O)C(=O)N[C@@H](Cc2ccc(O)cc2)C(=O)N1)C(=O)N[C@@H](Cc1ccc(O)cc1)C(=O)NCC(=O)N[C@H](C(=O)N[C@@H](CS)C(=O)NCC(N)=O)[C@@H](C)O [Ce-2]
C. elegans iPGM-C-HiBiT
  IC50: 0.0347 µM
C. elegans iPGM-C-HiBiT; [4]
  Standard assay statistics Ave RLU: 67.8 RLU
  Standard assay statistics S:B: 1.4
  Standard assay statistics S:N: -2.4
  Standard assay statistics Z’: -0.978

## CC(CNC(=O)C1CCN(C(=O)c2ncn3c2COC(c2ccccc2)C3)CC1)c1ccccc1 (stereo not drawn) [compound 00449795]
FLuc-C-HiBiT
  IC50: 0.00248 mM
